# Assay results: a melting point compilation (Tetko et al.; mined from patent text by program, amines drawn as free bases though some values may be those of a salt)
row,melting point,Compound
1,170 °C,CC(=O)CCc1ccc2c(c1)Cc1cc(O)ccc1-2
2,56 °C,COc1cc(N)ccc1-c1ccccc1
3,187 to 189 °C,O=C(O)c1ncc2[nH]c3ccccc3c2n1
4,73 to 75 °C,N#Cc1cc(N)ccc1Sc1ccccc1
5,108 to 110 °C,CCOC(=O)/C=C/c1ccc(OCCOC)cc1Oc1cc(C(F)(F)F)ccc1[N+](=O)[O-]
6,258 to 261 °C,NS(=O)(=O)c1ccc2c(c1)C(=O)c1ccccc1C2=O
7,103 to 106 °C,CCOC(=O)c1ccsc1NC(=O)NCCN1CCN(c2ccc(OC)cc2)CC1
8,120 to 122 °C,O=C1CCCN1S(=O)(=O)c1ccc(N2CCOCC2)cc1
9,58 to 59.5 °C,CCCc1c(OCCCCCCOc2ccc(C(=O)c3cccc(C(=O)OCC)c3)cc2CCC(=O)OCC)ccc2c1OCCC2=O
10,129 to 131 °C,COc1cc(N)cc([N+](=O)[O-])c1OC
11,252 to 254 °C,FC(F)(F)c1nc2cnc3ccccc3c2[nH]1
12,88.8 to 91.9 °C,C[C@]1(CN2CCC(OCCCc3ccc(Cl)cc3)CC2)Cn2cc([N+](=O)[O-])nc2O1
13,> 300 °C,Oc1ccc(-c2nc3cc(O)ccc3o2)c(O)c1
14,154 to 155 °C,O=C(C=Cc1cnc2ccccc2c1)NCCCSc1ccncc1
15,89 °C,Cc1c(O)cccc1Br
16,195 to 197 °C,O=S(=O)(Nc1ccc2c(OCc3coc(-c4ccccc4)n3)cccc2c1)C(F)(F)F
17,164 to 165 °C,CCOC(=O)c1cn(-c2cccc(O)c2)cn1
18,117 to 119 °C,CC(C)(C)c1csc(-c2cc3cc(CCl)ccc3o2)n1
19,264 to 266 °C,Cc1c(Br)c(=O)c(-c2ccc(Cl)cc2)c(C)n1C
20,178 to 180 °C,O=C1ON(c2ccccc2Cl)C(c2ccccc2)C1c1ccccc1 (stereo not given)
21,113 to 116 °C,Nc1nc(=O)n(C(=S)Oc2ccccc2)cc1F
22,258 to 260 °C,COC(=O)C1CCC2C3CC(=O)C4(O)CC(O)CCC4(C)C3CCC12C (stereo not given)
23,194 °C,NC(=O)C1CCN(c2cccc3c2OCCO3)CC1
24,134 °C,CCCCN1CCC(n2nc(-c3cc(Cl)cc4c3OCC4)oc2=O)CC1

row,melting point,Compound
1,210 to 212 °C,O=C(Nc1ccc2nc(CN3CCCC3)ccc2c1)c1ccc(N2CCCCC2=O)cc1
2,58 to 61 °C,CCCCC1=NC2(CCCC2)C(=O)N1Cc1ccc(-c2ccccc2S(=O)(=O)Nc2onc(C)c2C)c(CCCC)c1
3,245 to 248 °C,COc1ccc(-c2c3c(cc4ccc(O)cc24)-c2ccc(O)cc2CO3)cc1OC
4,43 to 43.5 °C,CCCCCCCCCCCCC#CCC(NC(C)=O)(C(=O)OCC)C(=O)OCC
5,73 to 79 °C,CCCC(=O)NCCc1c(OC)ccc2ccccc12
6,> 230 °C,CCOC(=O)c1cc(-c2csc(-c3ccnc(N(C)C)c3)n2)c(=O)[nH]c1C(C)C
7,269 °C,FC(F)(F)COc1ccc(-c2cc(C(F)(F)F)n3cnc(-c4ccncc4)c3n2)cc1C(F)(F)F
8,156 to 160 °C,NC(=O)c1ccc(C(=O)C=C(c2cc(Cl)cc(Cl)c2)C(F)(F)F)cc1
9,115 to 120 °C,O=C1Nc2ccccc2C1C1CCN(CC(O)C2COc3ccccc3O2)CC1 (stereo not given)
10,144 to 147 °C,O=C1CCC(=O)C(c2cccc(Cl)c2)N1 (stereo not given)
11,61 °C,CCOCCOCCOc1cc(N2C(=O)C3=C(CCCC3)C2=O)c(F)cc1Cl
12,47 to 51 °C,CC(C)Nc1cccc(C2CN3CCSC3=N2)c1 (stereo not given)
13,91 to 94 °C,Cc1cc(C)c(C)c(OC(C)(C)C(=O)O)c1
14,234 to 238 °C,N[C@@H](Cc1cn(Cc2ccccc2)cn1)C(=O)O
15,83 °C,C=CCOc1cc(C)c2ccc(=O)oc2c1
16,171 to 172 °C,CC(C(=O)NO)C(=O)N(c1ccccc1)c1ccccc1 (stereo not given)
17,155 to 156 °C,COc1ccc(Cl)c(Oc2c(CCl)nc(N3CCOCC3)nc2NS(=O)(=O)c2ccc(C(C)(C)C)cc2)c1
18,101 to 103 °C,CC(C)C[C@@H](OC(=O)c1cccnc1)C(=O)O
19,> 250 °C,"O=C1CCCC2=C1C(c1ccc(F)c(C(F)(F)F)c1)C1=C(CCS1)N2 (single isomer, unassigned; (+))"
20,49 to 50 °C,O=C(CCCCCl)c1ccccc1
21,208 to 210 °C,CC1(C)Oc2ccncc2C2OC21 (stereo not given)
22,118 to 126 °C,CCCc1c(OCCC2Cc3cc(CC(=O)O)ccc3O2)ccc(C(C)=O)c1O (stereo not given)
23,133 to 134 °C,O=c1[nH]c(=O)n(Cc2cccc(OCc3noc(-c4ccccc4)n3)c2)o1
24,202 °C,COc1ccc2c(c1)c(CC(O)(P(=O)(O)O)P(=O)(O)O)c(C)n2C(=O)c1ccc(Cl)cc1

row,melting point,Compound
1,310 to 312 °C,COc1cc(C2=Nc3ccc(N4CCCC4)cc3C(=O)C2)ccc1O
2,70 to 71 °C,c1cnc2c(c1)NCCCC2
3,172 °C,O=C(/C=C/c1cccc(S(=O)(=O)N2CCN(Cc3ccc4c(c3)OCO4)CC2)c1)NO
4,198 to 199 °C,Cn1cc(-c2cccc(N3CCc4c(sc5c4CCCC5)C3=O)c2CO)nc(Nc2cnn(CCO)c2)c1=O
5,173 °C,CCOC(=O)c1ccc(COCc2csc3nc(C(=O)NCc4cccc(OC)c4)[nH]c(=O)c23)cc1
6,114 to 115 °C,CCOC(=O)c1cn(Cc2ccc(OCc3coc(-c4ccccc4)n3)cc2)nc1-c1cccs1
7,93 °C,Cc1cccc(-c2nc3ccc(OCCN(C)C)cc3n2Cc2ccccc2C(F)(F)F)c1
8,158 to 159 °C,COc1ccc(CC(=O)O)c(C(=O)c2ccccc2)c1
9,220 to 225 °C,O=C(O)c1ccc(C(=O)N2Cc3ccccc3Cc3ccccc32)cc1
10,186 to 189 °C,O=C1CC2CC[C@@H](CN3C(=O)c4ccccc4C3=O)OC2O1 (stereo not given in full)
11,169 to 171 °C,COC(=O)C(=C/c1c(OC)cc(OC)cc1OC)/C(=C\c1ccccc1)C(N)=O
12,170 to 172 °C,O=C1c2ccccc2C(=O)N1CCCN1c2ccccc2C(c2ccccc2)=Nc2cccnc21
13,89 to 92 °C,CC(C#CCn1ccnc1)N1CCN(C)C1=O (stereo not given)
14,113 to 115 °C,COc1cc2cn(CC(O)CO)nc2cc1OC (stereo not given)
15,59 to 62 °C,CCCCCCCCCCCCCCc1cc(C(=O)OCC)c[nH]1
16,170 to 172 °C,Cc1[nH]c2ccc(CCO)cc2c1C(=O)OCc1ccccc1
17,132 to 136 °C,CC(C)(C)c1ccc(C(=O)c2ccc(C(C)(C)C)cc2)cc1
18,106 to 107 °C,CC(C)C[C@H](NC(=O)OCc1ccccc1)C(=O)N[C@@H](Cc1cccs1)C(=O)CSCc1ccco1
19,> 300 °C,CN(C)CC(=O)Nc1ccc2[nH]c(=O)c3ccccc3c2c1
20,72 to 74 °C,CCc1c(Br)c(C#N)nn1C
21,150 °C,CCn1ccc(=O)[nH]c1=O
22,154 to 155 °C,O=C(O)c1ccccc1COC1CCn2c(CCc3ccccc3)nc3cccc1c32 (stereo not given)
23,76 to 78 °C,O=C(CCN1CCN(c2cccc3[nH]ccc23)CC1)c1csc2ccc(F)cc12
24,224 to 227 °C,O=C1c2cc3nnn(Cc4nc5ccccc5s4)c(=O)c3cc2OC2CCCN12 (stereo not given)

row,melting point,Compound
1,83 to 85 °C,O=C(N[C@@H](Cc1ccccc1)C(=O)O)c1cccc(NC(=O)C(CS)Cc2ccccc2)c1 (stereo not given in full)
2,143 to 145 °C,CCOc1cc2c(C)c(CCN3CCN(c4ccccc4OC)CC3)c(=O)oc2cc1OC
3,151 to 153 °C,CCOc1c(C)c(N2CCN(c3ccc(OC)cc3)CC2)c(C)c2c1OC(C)(C)C2
4,163 °C,COC(=O)C1=C(C)NC(C)=C(C(=O)OCCN(C)Cc2ccccc2)C1c1cc([N+](=O)[O-])ccn1 (stereo not given)
5,163 to 165 °C,COc1ccc2c(c1)CC1=C2NN(C(=O)OC(C)(C)C)C1c1cccs1 (stereo not given)
6,150 to 155 °C,COc1ccc(-c2ccc3c(F)c(OC)ccc3c2)cc1
7,214 to 218 °C,Cc1ccc(N2C(=O)C(O)=C(C(=O)c3ccc(C(C)C)cc3)C2c2ccc(OC(F)(F)F)cc2)cn1 (stereo not given)
8,155 to 156 °C,NS(=O)(=O)c1cc2cc(N3CCOCC3)ccc2s1
9,85 to 90 °C,O=C1CCc2c1cccc2-c1ccccc1
10,109 to 111 °C,Cc1ccc2c(Cl)cc(C(=O)NCCCc3ccccc3)c(O)c2n1
11,179 to 180 °C,CC(C)(C)OC(=O)Nc1cc(N2CCC3(CC2)OCCO3)c(C#Cc2ccccc2)cc1[N+](=O)[O-]
12,184 to 185 °C,COc1ccnc(C(=O)c2[nH]c3cc(Cl)ccc3c2NC(=O)N(C)OC)c1
13,92.7 to 93 °C,CC(=O)SCC(C(=O)N1CCC(=C2c3ccc(Cl)cc3CCc3cccnc32)CC1)c1ccccc1 (stereo not given)
14,107 to 108 °C,CCOC(=O)/C(=N\OCC1CCCCC1)c1csc(N)n1
15,230 to 232 °C,Clc1ccc(-c2c(Cc3nnn[nH]3)cnn2-c2ccccc2)cc1
16,202 to 204 °C,Cc1ccc(-c2c3ccccc3c(-c3ccc(C)cc3)c3cc(Cl)ccc23)cc1
17,139 °C,CC1Oc2cc(N)c([N+](=O)[O-])cc2O1 (stereo not given)
18,178 to 179 °C,O=C(O)c1cc2c(C(F)(F)F)cccc2s1
19,> 300 °C,c1ccc(-c2ccc(Nc3nccc(-c4ccc(-c5ccc(N(c6ccccc6)c6ccccc6)cc5)cc4)n3)cc2)cc1
20,125 to 127 °C,O=C(CC1CC2CCC1C2)Nc1ccccc1C(c1ccc(O)cc1)c1ccc(O)cc1 (stereo not given)
21,150 °C,O=C(O)c1cc(S(=O)(=O)NC2CCCCC2)cc2c1OCCO2

row,Compound,melting point
1,CC1(C)CCC(C)(C)c2cc(-c3ccc4cc(O)ccc4c3)ccc21,104 °C
2,C#CCNC(=O)c1ncn2c1[C@@H]1CCN1C(=O)c1ccccc1-2,214 to 215 °C
3,CCCN1CC[C@@H]2CC(=O)c3cc(F)ccc3[C@@H]2C1 (relative stereo),> 220 °C
4,CC1(C)COP(N(CCCN(C2CC(C)(C)NC(C)(C)C2)P2OCC(C)(C)CO2)C2CC(C)(C)NC(C)(C)C2)OC1,102 °C
5,CC(=O)OCC12CCC(OC(C)=O)CC1CCC1C2CCC2(C)C(OC(=O)C(C)(C)C)CCC12O (stereo not given),155 to 156 °C
6,COC(=O)c1ccc(-c2ccc(-c3ccccc3)c(-c3ccc4c(c3)SCCC4(C)C)c2)cc1,172 °C
7,CC(=O)n1cc(C2=CCN(C)CC2)c2cc(F)ccc21,126 to 128 °C
